Species: Rattus norvegicus
Experiment: DrugMatrix - Regimen: Daily Repeat
Assay type: toxicity, organism-based, Sprague-Dawley
Design: regimen Daily Repeat, gender Male, age 6-8 weeks
Settings: in vivo, po, route oral GAVAGE, vehicle 100 % WATER; for ABSOLUTE BASOPHIL / ABSOLUTE EOSINOPHIL / ABSOLUTE LYMPHOCYTE / ABSOLUTE MONOCYTE / ABSOLUTE SEGMENTED NEUTROPHIL / BASOPHIL / EOSINOPHIL / ERYTHROCYTE COUNT / HEMATOCRIT / HEMOGLOBIN / LEUKOCYTE COUNT / LYMPHOCYTE / MEAN CORPUSCULAR HEMOGLOBIN / MEAN CORPUSCULAR HEMOGLOBIN CONCENTRATION / MEAN CORPUSCULAR VOLUME / MONOCYTE / NEUTROPHIL / NUCLEATED RED BLOOD CELLS / PLATELET COUNT: tissue Blood; for ALANINE AMINOTRANSFERASE / ALBUMIN / ALKALINE PHOSPHATASE / ASPARTATE AMINOTRANSFERASE / BLOOD UREA NITROGEN / CARBON DIOXIDE / CHLORIDE / CHOLESTEROL / CREATINE PHOSPHOKINASE / CREATININE / GLUCOSE / LACTATE DEHYDROGENASE / LIPASE / PHOSPHORUS / POTASSIUM / SODIUM / TOTAL BILIRUBIN / TOTAL PROTEIN / URIC ACID: tissue Plasma
[1] = 63 mg/kg, 120 h, dose level High, time 5 day
[2] = […], 72 h, dose 6.3 mg/Kg, dose level Low, time 3 day
[3] = […], 120 h, dose 6.3 mg/Kg, dose level Low, time 5 day

CNCCC=C1c2ccccc2CCc2ccccc21 [NORTRIPTYLINE]
ABSOLUTE BASOPHIL [1]: 0 CELLS/uL
ABSOLUTE EOSINOPHIL [1]: 0 CELLS/uL
ABSOLUTE LYMPHOCYTE [1]: 11759 CELLS/uL
ABSOLUTE MONOCYTE [1]: 53.67 CELLS/uL
ABSOLUTE SEGMENTED NEUTROPHIL [1]: 987.33 CELLS/uL
BASOPHIL [1]: 0%
EOSINOPHIL [1]: 0%
ERYTHROCYTE COUNT [1]: 5.77 x10E6/uL
HEMATOCRIT [1]: 35.97%
HEMOGLOBIN [1]: 14.67 G/DL
LEUKOCYTE COUNT [1]: 12.8 x10E3/uL
LYMPHOCYTE [1]: 91.67%
MEAN CORPUSCULAR HEMOGLOBIN [1]: 25.43 pg
MEAN CORPUSCULAR HEMOGLOBIN CONCENTRATION [1]: 40.77 G/DL
MEAN CORPUSCULAR VOLUME [1]: 62.33 fL
MONOCYTE [1]: 0.33%
NEUTROPHIL [1]: 8%
NUCLEATED RED BLOOD CELLS [1]: 0 /100WBC
PLATELET COUNT [1]: 1245.67 x10E3/uL
ALANINE AMINOTRANSFERASE [1]: 45.67 u/L
ALBUMIN [1]: 4.27 G/DL
ALKALINE PHOSPHATASE [1]: 460.33 u/L
ASPARTATE AMINOTRANSFERASE [1]: 77.33 u/L
BLOOD UREA NITROGEN [1]: 16.33 mg/dL
CARBON DIOXIDE [1]: 29 mmol/L
CHLORIDE [1]: 101.33 MEQ/L
CHOLESTEROL [1]: 78 mg/dL
CREATINE PHOSPHOKINASE [1]: 346.33 u/L
CREATININE [1]: 0.24 mg/dL
GLUCOSE [1]: 205 mg/dL
LACTATE DEHYDROGENASE [1]: 142 u/L
LIPASE [1]: 9.67 u/L
PHOSPHORUS [1]: 11.23 mg/dL
POTASSIUM [1]: 4.99 MEQ/L
SODIUM [1]: 144.43 MEQ/L
TOTAL BILIRUBIN [1]: 0.17 mg/dL
TOTAL PROTEIN [1]: 6.07 G/DL
URIC ACID [1]: 1.6 mg/dL
ABSOLUTE BASOPHIL [2]: 0 CELLS/uL
ABSOLUTE EOSINOPHIL [2]: 47.67 CELLS/uL
ABSOLUTE LYMPHOCYTE [2]: 13905.67 CELLS/uL
ABSOLUTE MONOCYTE [2]: 0 CELLS/uL
ABSOLUTE SEGMENTED NEUTROPHIL [2]: 1246.67 CELLS/uL
BASOPHIL [2]: 0%
EOSINOPHIL [2]: 0.33%
ERYTHROCYTE COUNT [2]: 5.4 x10E6/uL
HEMATOCRIT [2]: 34.5%
HEMOGLOBIN [2]: 13.8 G/DL
LEUKOCYTE COUNT [2]: 15.2 x10E3/uL
LYMPHOCYTE [2]: 90.67%
MEAN CORPUSCULAR HEMOGLOBIN [2]: 25.57 pg
MEAN CORPUSCULAR HEMOGLOBIN CONCENTRATION [2]: 39.97 G/DL
MEAN CORPUSCULAR VOLUME [2]: 63.87 fL
MONOCYTE [2]: 0%
NEUTROPHIL [2]: 9%
NUCLEATED RED BLOOD CELLS [2]: 0.33 /100WBC
PLATELET COUNT [2]: 1291.33 x10E3/uL
ALANINE AMINOTRANSFERASE [2]: 51.33 u/L
ALBUMIN [2]: 3.87 G/DL
ALKALINE PHOSPHATASE [2]: 385.33 u/L
ASPARTATE AMINOTRANSFERASE [2]: 86.33 u/L
BLOOD UREA NITROGEN [2]: 14.33 mg/dL
CARBON DIOXIDE [2]: 34 mmol/L
CHLORIDE [2]: 99.33 MEQ/L
CHOLESTEROL [2]: 71.33 mg/dL
CREATINE PHOSPHOKINASE [2]: 248 u/L
CREATININE [2]: 0.17 mg/dL
GLUCOSE [2]: 136.67 mg/dL
LACTATE DEHYDROGENASE [2]: 250.33 u/L
LIPASE [2]: 10 u/L
PHOSPHORUS [2]: 11.47 mg/dL
POTASSIUM [2]: 6.49 MEQ/L
SODIUM [2]: 143 MEQ/L
TOTAL BILIRUBIN [2]: 0.23 mg/dL
TOTAL PROTEIN [2]: 5.9 G/DL
URIC ACID [2]: 1.23 mg/dL
ABSOLUTE BASOPHIL [3]: 0 CELLS/uL
ABSOLUTE EOSINOPHIL [3]: 0 CELLS/uL
ABSOLUTE LYMPHOCYTE [3]: 14550 CELLS/uL
ABSOLUTE MONOCYTE [3]: 394 CELLS/uL
ABSOLUTE SEGMENTED NEUTROPHIL [3]: 2022.67 CELLS/uL
BASOPHIL [3]: 0%
EOSINOPHIL [3]: 0%
ERYTHROCYTE COUNT [3]: 5.68 x10E6/uL
HEMATOCRIT [3]: 35.47%
HEMOGLOBIN [3]: 14.63 G/DL
LEUKOCYTE COUNT [3]: 16.97 x10E3/uL
LYMPHOCYTE [3]: 85.67%
MEAN CORPUSCULAR HEMOGLOBIN [3]: 25.87 pg
MEAN CORPUSCULAR HEMOGLOBIN CONCENTRATION [3]: 41.2 G/DL
MEAN CORPUSCULAR VOLUME [3]: 62.7 fL
MONOCYTE [3]: 2.33%
NEUTROPHIL [3]: 12%
NUCLEATED RED BLOOD CELLS [3]: 0 /100WBC
PLATELET COUNT [3]: 1314.33 x10E3/uL
ALANINE AMINOTRANSFERASE [3]: 49.33 u/L
ALBUMIN [3]: 4.63 G/DL
ALKALINE PHOSPHATASE [3]: 430.67 u/L
ASPARTATE AMINOTRANSFERASE [3]: 87.33 u/L
BLOOD UREA NITROGEN [3]: 23 mg/dL
CARBON DIOXIDE [3]: 28 mmol/L
CHLORIDE [3]: 98.33 MEQ/L
CHOLESTEROL [3]: 70.33 mg/dL
CREATINE PHOSPHOKINASE [3]: 246 u/L
CREATININE [3]: 0.24 mg/dL
GLUCOSE [3]: 143.33 mg/dL
LACTATE DEHYDROGENASE [3]: 121 u/L
LIPASE [3]: 11 u/L
PHOSPHORUS [3]: 12.13 mg/dL
POTASSIUM [3]: 7.2 MEQ/L
SODIUM [3]: 141.23 MEQ/L
TOTAL BILIRUBIN [3]: 0.27 mg/dL
TOTAL PROTEIN [3]: 6.6 G/DL
URIC ACID [3]: 2.13 mg/dL
